What all share (format): cell-based
For one assay, the system named is NF-M. The assay is described as follows: NF-M staining by fluorescent microscopy. The settings on record: 7 days on glass slides. How it is done: Cells were cultured for 7 days with the indicated treatments on glass slides. Cells were fixed and stained with antibodies for NF-M and nucleus. Images were captured on a fluorescent microscope.
The test system of the next assay is SK-N-BE2 cells. The assay is described as follows: Levels of proteins related to cell-cycle progression. To be noted: 3 days in culture. The method, then:
The levels of proteins related to cell-cycle progression were assessed following treatment (SK-N-BE2 cells; 3 days in culture) with DMSO (control), Compound B alone, ATRA alone, and Compound B in combination with ATRA. p21 is increased by ATRA and enhanced by Compound B. Cyclin D1 is decreased in the combination setting relative to ATRA as a single agent. CDK2 and CDK4 are decreased in the combination setting with Compound B and ATRA.

Assay [1] has as its system retinoic acid receptor (RAR). The assay is described as follows: Retinoic acid receptor ChIP-seq. The settings on record: 3 μM Compound B, 48 hours. The source says: Retinoic acid receptor active binding sites defined in any individual treatment group by ChIP-seq at 48 hrs after treatment were stacked (y-axis) and aligned to the center of the binding peak (x-axis) (FIG. 13). […] Many of the genes found near region 1 binding sites are involved in regulation of retinoid signaling and are transcription factors that drive differentiation (Table 10).
Regions 1-7 of FIG. 13 are defined relative to DMSO: 1, [Combo] Increased; 2, [ATRA] Increased; 3, [ATRA] [Combo] Increased; 4, [Combo] [ATRA] [Compound B] Increased; 5, [Combo] [ATRA] Decreased; 6, [Compound B] Decreased; and 7, [Compound B] [Combo] [ATRA] Decreased.
Neuroblastoma cell line SK-N-BE(2) cells were treated with 3 μM Compound B, 1 μM ATRA, or a combination of both at 37° C. over 48 hours and compared to the solvent (DMSO) control. Antibodies to pan-retinoic acid receptor were used to pull down DNA associated with the receptor binding and sequenced. Lists of binding regions were mapped to the chromosome and “associated” with a given gene if the binding region was located within 10,000 bp up- or down-stream of the gene in question. Binding regions were represented as a heatmap where the sites were stacked on the y-axis across treatments, the “0” mark on the x-axis is the center of the binding peak and the intensity of signal indicated by color. The bracketed regions are areas of statistical significance relative to the DMSO control as indicated on the plot.
Table 12 lists the genes returned when the following conditions are met: 1) combo peak height >4 fold relative to the DMSO control group, and 2) combo expression >4 fold relative to the DMSO control group.

In another assay the test system is SK-N-BE(2) cells. The assay is described as follows: Caspase activity (Promega Caspase3/7 Glo assay). How it is done: Cells were cultured for 48 hours at the indicated concentration of drug, and then cell viability was measured by Promega CellTiter Glo assay and caspase activity was measured by Promega Caspase3/7 Glo assay. […] Anti-tumor activity is evident at 3 μM of treatment.

The subject of another assay is AKT and c-RAF. The assay is described as follows: Levels of AKT and c-RAF. The settings on record: SK-N-BE2 cells; 3 days in culture. How it is done: The levels of AKT and c-RAF were assessed following treatment (SK-N-BE2 cells; 3 days in culture) with DMSO (control), Compound B alone, ATRA alone, and Compound B in combination with ATRA. Activated AKT is increased by ATRA and reduced in the combination setting with Compound B. Compound B as a single agent, and in combination with ATRA, decreases cRAF phosphorylation at residue Ser259.

The mark [2] stands for this setting: SK-N-BE(2) cells, 1 μM ATRA or combination, fold relative to the DMSO control group.

The values that follow come from US20160339022A1, “TREATMENT OF NEUROBLASTOMA WITH HISTONE DEACETYLASE INHIBITORS” (Acetylon Pharmaceuticals Inc., priority 2015, published 2016).

With `Nc1ccc(-c2cccs2)cc1NC(=O)c1ccc2c(c1)cc(C1CC1)n2CCN1CCOCC1` [Compound B, N-(2-amino-5-(thiophen-2-yl)phenyl)-2-cyclopropyl-1-(2-morpholinoethyl)-1H-indole-5-carboxamide], the NF-M staining entry in the assay on NF-M is recorded as “general increase in NF-M staining”. In the assay on SK-N-BE2 cells, the p21 level result is reported as “enhanced”. Further, in assay [1] (setting [2]), the “RAR Binding (Peak Height), ACSL3” value turned out to be 2.00; the “RAR Binding (Peak Height), ATP7A” value came out at 2.20; the “RAR Binding (Peak Height), CDKN1A” value was found to be 0.50; the “RAR Binding (Peak Height), CRABP2” value came to 0.69. In assay [1] (setting [2]), the “RAR Binding (Peak Height), CTSH” value is on record as 0.83; the “RAR Binding (Peak Height), CYP26A1” value is 2.33; the “RAR Binding (Peak Height), CYP26B1” value is 1.50; the “RAR Binding (Peak Height), DHRS3” value is on record as 1.00. Besides, in assay [1] (setting [2]), the “RAR Binding (Peak Height), DUSP6” value was 3.00; the “RAR Binding (Peak Height), ETS1” value turned out to be 3.35; the “RAR Binding (Peak Height), HSPA5” value is listed as 2.00; the “RAR Binding (Peak Height), IER3” value was 2.67. In addition, in assay [1] (setting [2]), the “RAR Binding (Peak Height), NFKBIZ” value is listed as 3.33; the “RAR Binding (Peak Height), PCDH18” value was found to be 4.00; the “RAR Binding (Peak Height), PTGER2” value worked out at 0.75; the “RAR Binding (Peak Height), RARB” value amounted to 1.10. Moreover, the “RAR Binding (Peak Height), RET” value in assay [1] (setting [2]) is 1.71. For the same compound, the “RAR binding to chromatin” value in assay [1] (SK-N-BE(2), 1 μM ATRA, vs DMSO) is recorded as “can reduce RAR binding”. For the same compound, the “caspase 3/7 induction” value with SK-N-BE(2) cells (1 μM, 48 hours) is reported as “Minimal”. For the same compound, in the assay with SK-N-BE(2) cells (FIG. 2B, independent of ATRA), the “concentrations at which Caspase 3/7 activity is increased” value is at least 2 µM. In addition, the “cRAF phosphorylation at residue Ser259” value with AKT and c-RAF is given as “decreases”.
